Measured values: patent publication US4497802A, “N-Acyl glycopeptide derivatives” (Eli Lilly and Company, priority 1983, dated 1985)
Read-outs that look alike come from different tables or passages of the source.

Columns and labels:
[1] = tested on: Staphylococcus aureus V41; test: MIC, standard agar-dilution assay; assay type: cell-based
[2] = tested on: Haemophilus influenzae 76; test: MIC, standard agar-dilution assay; assay type: cell-based; conditions: Haemophilus influenzae 76, ampicillin-resistant strain
[3] = tested on: Staphylococcus aureus X400; test: MIC, standard agar-dilution assay; assay type: cell-based; conditions: Staphylococcus aureus X400, methicillin-resistant strain
[4] = tested on: Staphylococcus epidermidis EPI1; assay type: cell-based
[5] = tested on: Staphylococcus aureus S13E; assay type: cell-based; conditions: agar dilution
[6] = tested on: Staphylococcus aureus X1.1; test: MIC, standard agar-dilution assay; assay type: cell-based
[7] = tested on: Staphylococcus epidermidis EPI2; test: MIC, standard agar-dilution assay; assay type: cell-based
[8] = tested on: Streptococcus pneumoniae Park I; assay type: cell-based; conditions: agar dilution
Staphylococcus aureus = test: ED50 in experimentally infected mice; assay type: in vivo; conditions: mice infected with Staphylococcus aureus; administered subcutaneously 1 and 4 hours postinfection
[9] = tested on: Streptococcus pyogenes C203; test: MIC, standard agar-dilution assay; assay type: cell-based
Streptococcus Group 9960 = test: MIC, standard agar-dilution assay; assay type: cell-based
[10] = tested on: Streptococcus Group D X66; test: MIC, standard agar-dilution assay; assay type: cell-based
[11] = tested on: Haemophilus influenzae C.L.; test: MIC, standard agar-dilution assay; assay type: cell-based; conditions: ampicillin-sensitive strain
Streptococcus pyogenes = test: ED50 in experimentally infected mice; assay type: in vivo; conditions: mice infected with Streptococcus pyogenes; administered subcutaneously 1 and 4 hours postinfection
Protocol: (§1) Some of the derivatives of this invention have shown in vivo antimicrobial activity against experimentally-induced infections in laboratory animals. When two doses of test compound were administered to experimentally infected mice, the activity observed was measured as an ED50 value [effective dose in mg/kg to protect 50% of the test animals: see Warren Wick, et al., J. Bacteriol. 81, 233-235 (1961)].
(§2) ^a mg/kg × 2; administered subcutaneously 1 and 4 hours

Streptococcus pneumoniae = test: ED50 in experimentally infected mice; assay type: in vivo; conditions: mice infected with Streptococcus pneumoniae; administered subcutaneously 1 and 4 hours postinfection
Protocol: as §1, §2

[12] = Staphylococcus aureus V41, penicillin-resistant strain, agar dilution
[13] = Staphylococcus epidermidis EPI1, agar dilution
[14] = Staphylococcus aureus X1.1, agar dilution
[15] = Streptococcus pyogenes C203, agar dilution
[16] = Streptococcus Group 9960, agar dilution
[17] = Streptococcus Group D X66, agar dilution

| Substance | MIC [1, 12] | MIC [2] | MIC [3] | MIC [4, 13] | MIC [5] | MIC [6, 14] | MIC [7] | MIC [8] | ED50 (Staphylococcus aureus) | MIC [9, 15] | MIC (Streptococcus Group 9960; [16]) | MIC [10, 17] | MIC [11] | ED50 (Streptococcus pyogenes) | ED50 (Streptococcus pneumoniae) | other results |
| --- | --- | --- | --- | --- | --- | --- | --- | --- | --- | --- | --- | --- | --- | --- | --- | --- |
| N--(3,5-dichlorobenzoyl)A35512B [Example 11] | 4 µg/mL | -- (Compound not active at less than 128 mcg/ml) | 8 µg/mL | 4 µg/mL | 8 µg/mL | 8 µg/mL | 16 µg/mL | 1 µg/mL | 11.8 mg/kg × 2 | 1 µg/mL | 2 µg/mL | 4 µg/mL | -- (Compound not active at less than 128 mcg/ml) |  |  |  |
| N--[p-(octyloxy)benzoyl]A41030A [Example 21] | 1 µg/mL | -- (Compound not active at less than 128 mcg/ml) | 2 µg/mL | 0.5 µg/mL | 2 µg/mL | 1 µg/mL | 1 µg/mL | 2 µg/mL | 2.19 mg/kg × 2 | 2 µg/mL | 1 µg/mL | 2 µg/mL | -- (Compound not active at less than 128 mcg/ml) | > 10 mg/kg × 2 | > 10 mg/kg × 2 |  |
| N--[(1-tetrazole)acetyl]A35512B [Example 10] | 4 µg/mL | -- (Compound not active at less than 128 mcg/ml) | 8 µg/mL | 4 µg/mL | 4 µg/mL | 4 µg/mL | 16 µg/mL | 4 µg/mL | 5.7 mg/kg × 2 | 2 µg/mL | 8 µg/mL | 8 µg/mL | -- (Compound not active at less than 128 mcg/ml) |  |  |  |
| N-(L-phenylalanyl)A35512B [Example 2] | 4 µg/mL |  | 8 µg/mL | 4 µg/mL | 4 µg/mL | 4 µg/mL | 8 µg/mL | 4 µg/mL | 5.87 mg/kg × 2 | 2 µg/mL | 4 µg/mL | 4 µg/mL |  |  |  |  |
| N--(nonanoyl)A35512B [Example 8] | 2 µg/mL |  | 2 µg/mL | 2 µg/mL | 2 µg/mL | 2 µg/mL | 4 µg/mL | 4 µg/mL | 11.34 mg/kg × 2 | 2 µg/mL | 2 µg/mL | 4 µg/mL |  |  |  |  |
| N--[4-(N,N--dimethylamino)benzoyl]A41030A [Example 18] | 0.5 µg/mL | 64 µg/mL | 0.5 µg/mL | 0.25 µg/mL | 0.25 µg/mL | 0.25 µg/mL | 0.5 µg/mL | 0.5 µg/mL | 0.46 mg/kg × 2 | 1 µg/mL | 2 µg/mL | 1 µg/mL | -- (Compound not active at less than 128 mcg/ml) | > 10 mg/kg × 2 | > 10 mg/kg × 2 |  |
| N--[(3-sydnone)acetyl]A35512B [Example 12] |  |  | 16 µg/mL |  | 8 µg/mL |  | 16 µg/mL | 2 µg/mL | 10.97 mg/kg × 2 |  |  |  |  |  |  | MIC [1]: 8 µg/mL; MIC [4]: 8 µg/mL; MIC [6]: 4 µg/mL; MIC [9]: 2 µg/mL; MIC (Streptococcus Group 9960): 8 µg/mL; MIC [10]: 8 µg/mL |
| N--(nonanoyl)A47934 [Example 25] | 0.125 µg/mL | 8 µg/mL | 0.25 µg/mL | 0.06 µg/mL | 0.125 µg/mL | 0.125 µg/mL | 0.125 µg/mL | 0.25 µg/mL | < 0.31 mg/kg × 2 | 0.5 µg/mL | 0.25 µg/mL | 0.25 µg/mL | 8 µg/mL | > 10 mg/kg × 2 | > 10 mg/kg × 2 |  |
| N--[p-(octyloxy)benzoyl]A47934 [Example 26] | 0.25 µg/mL | 4 µg/mL | 0.5 µg/mL | 0.125 µg/mL | 0.25 µg/mL | 0.125 µg/mL | 0.5 µg/mL | 0.5 µg/mL | 3.6 mg/kg × 2 | 0.5 µg/mL | 1 µg/mL | 0.5 µg/mL | 8 µg/mL | > 10 mg/kg × 2 | > 10 mg/kg × 2 |  |
| N--(11-aminoundecanoyl)A35512B [Example 7] | 4 µg/mL | -- (Compound not active at less than 128 mcg/ml) | 8 µg/mL | 8 µg/mL | 4 µg/mL | 4 µg/mL | 16 µg/mL | 4 µg/mL | 4.5 mg/kg × 2 | 2 µg/mL | 4 µg/mL | 4 µg/mL | -- (Compound not active at less than 128 mcg/ml) |  |  |  |
| N--[p-(dodecyloxy)phenylpropanoyl]A35512B [Example 9] | 8 µg/mL |  | 8 µg/mL | 16 µg/mL | 8 µg/mL | 4 µg/mL | 16 µg/mL | 2 µg/mL | 70 mg/kg × 2 | 2 µg/mL | 4 µg/mL | 4 µg/mL |  |  |  |  |
| N--(L-phenylalanyl)A47934 [Example 24] | 0.06 µg/mL | 4 µg/mL | 0.25 µg/mL | 0.125 µg/mL | 0.06 µg/mL | 0.06 µg/mL | 0.25 µg/mL | 0.06 µg/mL | < 0.31 mg/kg × 2 | 0.25 µg/mL | 1 µg/mL | 0.5 µg/mL | 4 µg/mL |  |  |  |
| N--(lauroyl)A41030A [Example 20] | 0.5 µg/mL | 32 µg/mL | 1 µg/mL | 0.5 µg/mL | 0.5 µg/mL | 0.5 µg/mL | 0.5 µg/mL | 1 µg/mL | 0.6 mg/kg × 2 | 1 µg/mL | 0.5 µg/mL | 0.5 µg/mL | 32 µg/mL | > 10 mg/kg × 2 | > 10 mg/kg × 2 |  |
| N--(L-phenylalanyl)A41030A [Example 17] | 0.125 µg/mL | 16 µg/mL | 0.125 µg/mL | 0.125 µg/mL | 0.125 µg/mL | 0.125 µg/mL | 0.125 µg/mL | 0.125 µg/mL | 0.08 mg/kg × 2 | 0.125 µg/mL | 0.125 µg/mL | 0.5 µg/mL | 8 µg/mL | > 10 mg/kg × 2 | 8.52 mg/kg × 2 |  |
| N--(nonanoyl)A41030A [Example 19] | 0.25 µg/mL | 16 µg/mL | 0.25 µg/mL | 0.125 µg/mL | 0.25 µg/mL | 0.125 µg/mL | 0.25 µg/mL | 0.5 µg/mL | < 0.31 mg/kg × 2 | 0.5 µg/mL | 0.25 µg/mL | 0.25 µg/mL | 32 µg/mL | > 10 mg/kg × 2 | > 10 mg/kg × 2 |  |
| N--(D-phenylglycyl)A35512B [Example 5] | 4 µg/mL |  | 8 µg/mL | 4 µg/mL | 8 µg/mL | 4 µg/mL | 8 µg/mL | 4 µg/mL | 14.4 mg/kg × 2 | 2 µg/mL | 4 µg/mL | 8 µg/mL |  |  |  |  |
| N--[N--(hexanoyl)-L-tryptophyl]A35512B [Example 3] | 8 µg/mL |  | 8 µg/mL | 8 µg/mL | 4 µg/mL | 4 µg/mL | 8 µg/mL | 1 µg/mL | 10.84 mg/kg × 2 | 1 µg/mL | 2 µg/mL | 4 µg/mL |  |  |  |  |
